From article PMC10590419, “Structural and mechanistic insights into the inhibition of respiratory syncytial virus polymerase by a non-nucleoside inhibitor” (Communications Biology, 2023)
Several values for one entry are separate records, joined by “and”; a condition that tells them apart may be missing. Equal entries are not always repeated. Where two headings read alike, the source gives them in different places.

How the values were obtained:
[1] = target: human mitochondrial RNA polymerase (POLRMT) (Homo sapiens, UniProt O00411); test: Mitochondrial RNA polymerase DdRp activity; format: biochemical
human mitochondrial RNA polymerase (POLRMT), sequence (O00411 42-1230): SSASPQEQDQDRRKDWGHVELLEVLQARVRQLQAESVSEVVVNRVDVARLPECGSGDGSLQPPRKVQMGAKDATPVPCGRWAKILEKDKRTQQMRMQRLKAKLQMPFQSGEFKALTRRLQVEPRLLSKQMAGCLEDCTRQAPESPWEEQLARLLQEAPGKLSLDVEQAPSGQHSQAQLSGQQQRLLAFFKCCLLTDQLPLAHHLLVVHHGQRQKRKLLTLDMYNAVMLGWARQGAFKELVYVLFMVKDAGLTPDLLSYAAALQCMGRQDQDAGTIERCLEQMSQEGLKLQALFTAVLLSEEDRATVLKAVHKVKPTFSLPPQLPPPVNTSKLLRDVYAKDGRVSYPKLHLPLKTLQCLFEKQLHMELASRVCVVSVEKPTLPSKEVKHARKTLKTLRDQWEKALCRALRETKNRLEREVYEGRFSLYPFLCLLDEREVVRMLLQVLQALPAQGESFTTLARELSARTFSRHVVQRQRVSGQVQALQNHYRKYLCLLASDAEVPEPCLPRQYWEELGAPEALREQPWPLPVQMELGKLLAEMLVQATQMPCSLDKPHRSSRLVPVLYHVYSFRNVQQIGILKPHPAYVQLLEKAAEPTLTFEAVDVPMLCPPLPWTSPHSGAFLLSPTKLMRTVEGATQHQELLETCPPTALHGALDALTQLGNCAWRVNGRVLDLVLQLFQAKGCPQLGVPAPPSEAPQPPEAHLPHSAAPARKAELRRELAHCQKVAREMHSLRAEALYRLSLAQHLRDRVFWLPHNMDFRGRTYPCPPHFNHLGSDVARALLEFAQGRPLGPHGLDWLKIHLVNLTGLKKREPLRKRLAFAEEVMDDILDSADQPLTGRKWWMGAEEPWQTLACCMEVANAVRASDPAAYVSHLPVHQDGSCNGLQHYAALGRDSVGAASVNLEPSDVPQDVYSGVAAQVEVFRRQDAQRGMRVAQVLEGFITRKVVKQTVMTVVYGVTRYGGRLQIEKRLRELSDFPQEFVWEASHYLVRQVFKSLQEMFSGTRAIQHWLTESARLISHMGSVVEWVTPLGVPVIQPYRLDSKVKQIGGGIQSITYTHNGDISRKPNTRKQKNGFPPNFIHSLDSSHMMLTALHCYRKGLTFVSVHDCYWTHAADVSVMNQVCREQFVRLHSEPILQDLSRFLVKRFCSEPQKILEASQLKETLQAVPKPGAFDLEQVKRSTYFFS
Description: to the method described previously 1. A 25 nM solution of RSV MTase-CTD protein or RSV L+P complex was incubated with 0.7 µM or 1.8 µM purified synthetic RNA 5’-Gppp […]
[…] (RSV9) for the MTase-CTD or L+P complex, respectively; 2 µM or 0.17 µM S-adenosyl methionine (SAM) for the MTase-CTD or L–P complex, respectively; and 0.1 µM or 0.8 µM 3H-SAM (Perkin Elmer) for the MTase-CTD or L–P complex, respectively; in 50 mM Tris-HCl pH 8.0. Compounds, previously dissolved in DMSO were added at a final concentration of 50 µM or 200 µM. After 3 h incubation at 30°C, reactions were quenched by a 20-fold dilution in ice cold water. […] They were then soaked with scintillation fluid (Perkin Elmer), and 3H-methyl transfer to the RNA substrates was determined using a Wallac MicroBeta TriLux Liquid Scintillation Counter. […]
Human DNA polymerases alpha (CHIMERx) at 5 U/ml, beta (CHIMERx) at 0.5 U/ml and gamma (Abcam) at 0.1 mg/ml were incubated with the tested inhibitors at specified concentrations, and a reaction mix composed of 62 µg/ml activated calf thymus DNA, dGTP (2 µM), dATP (2 µM), dCTP (2 µM), [ 3H]dTTP (0.05 µCi/µl), 0.1 mg/ml BSA and a buffer composed of Tris-HCl pH 8 (50 mM), MgCl 2 (5 mM), KCl (60 mM), and DTT (4 mM.) in a total volume of 50 µl. […] Radioactivity was measured via liquid scintillation counting (MicroScint-20, 40µl) on a TriLux apparatus. […]

[2] = test system: HMPV (recombinant CAN97-83-derived strain encoding GFP); test: microbe, parasite or virus in culture; format: cell-based; details: human metapneumovirus, LLC-MK2
RSV L+P complex = RSV L+P complex (Human respiratory syncytial virus A, UniProt P28887); format: biochemical; details: for MTase activity, RNA+compound+RSV L+P, CPM: three technical replicates
RSV L+P complex, sequence (P03421 whole entry): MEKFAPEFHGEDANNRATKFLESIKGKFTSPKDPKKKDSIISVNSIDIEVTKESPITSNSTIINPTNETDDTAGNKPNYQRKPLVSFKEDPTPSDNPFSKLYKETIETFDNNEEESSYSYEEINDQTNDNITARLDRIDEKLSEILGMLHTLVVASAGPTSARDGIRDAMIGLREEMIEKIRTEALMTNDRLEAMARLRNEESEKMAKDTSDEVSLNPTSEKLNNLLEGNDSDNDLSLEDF
RSV L+P complex, sequence (P28887 whole entry): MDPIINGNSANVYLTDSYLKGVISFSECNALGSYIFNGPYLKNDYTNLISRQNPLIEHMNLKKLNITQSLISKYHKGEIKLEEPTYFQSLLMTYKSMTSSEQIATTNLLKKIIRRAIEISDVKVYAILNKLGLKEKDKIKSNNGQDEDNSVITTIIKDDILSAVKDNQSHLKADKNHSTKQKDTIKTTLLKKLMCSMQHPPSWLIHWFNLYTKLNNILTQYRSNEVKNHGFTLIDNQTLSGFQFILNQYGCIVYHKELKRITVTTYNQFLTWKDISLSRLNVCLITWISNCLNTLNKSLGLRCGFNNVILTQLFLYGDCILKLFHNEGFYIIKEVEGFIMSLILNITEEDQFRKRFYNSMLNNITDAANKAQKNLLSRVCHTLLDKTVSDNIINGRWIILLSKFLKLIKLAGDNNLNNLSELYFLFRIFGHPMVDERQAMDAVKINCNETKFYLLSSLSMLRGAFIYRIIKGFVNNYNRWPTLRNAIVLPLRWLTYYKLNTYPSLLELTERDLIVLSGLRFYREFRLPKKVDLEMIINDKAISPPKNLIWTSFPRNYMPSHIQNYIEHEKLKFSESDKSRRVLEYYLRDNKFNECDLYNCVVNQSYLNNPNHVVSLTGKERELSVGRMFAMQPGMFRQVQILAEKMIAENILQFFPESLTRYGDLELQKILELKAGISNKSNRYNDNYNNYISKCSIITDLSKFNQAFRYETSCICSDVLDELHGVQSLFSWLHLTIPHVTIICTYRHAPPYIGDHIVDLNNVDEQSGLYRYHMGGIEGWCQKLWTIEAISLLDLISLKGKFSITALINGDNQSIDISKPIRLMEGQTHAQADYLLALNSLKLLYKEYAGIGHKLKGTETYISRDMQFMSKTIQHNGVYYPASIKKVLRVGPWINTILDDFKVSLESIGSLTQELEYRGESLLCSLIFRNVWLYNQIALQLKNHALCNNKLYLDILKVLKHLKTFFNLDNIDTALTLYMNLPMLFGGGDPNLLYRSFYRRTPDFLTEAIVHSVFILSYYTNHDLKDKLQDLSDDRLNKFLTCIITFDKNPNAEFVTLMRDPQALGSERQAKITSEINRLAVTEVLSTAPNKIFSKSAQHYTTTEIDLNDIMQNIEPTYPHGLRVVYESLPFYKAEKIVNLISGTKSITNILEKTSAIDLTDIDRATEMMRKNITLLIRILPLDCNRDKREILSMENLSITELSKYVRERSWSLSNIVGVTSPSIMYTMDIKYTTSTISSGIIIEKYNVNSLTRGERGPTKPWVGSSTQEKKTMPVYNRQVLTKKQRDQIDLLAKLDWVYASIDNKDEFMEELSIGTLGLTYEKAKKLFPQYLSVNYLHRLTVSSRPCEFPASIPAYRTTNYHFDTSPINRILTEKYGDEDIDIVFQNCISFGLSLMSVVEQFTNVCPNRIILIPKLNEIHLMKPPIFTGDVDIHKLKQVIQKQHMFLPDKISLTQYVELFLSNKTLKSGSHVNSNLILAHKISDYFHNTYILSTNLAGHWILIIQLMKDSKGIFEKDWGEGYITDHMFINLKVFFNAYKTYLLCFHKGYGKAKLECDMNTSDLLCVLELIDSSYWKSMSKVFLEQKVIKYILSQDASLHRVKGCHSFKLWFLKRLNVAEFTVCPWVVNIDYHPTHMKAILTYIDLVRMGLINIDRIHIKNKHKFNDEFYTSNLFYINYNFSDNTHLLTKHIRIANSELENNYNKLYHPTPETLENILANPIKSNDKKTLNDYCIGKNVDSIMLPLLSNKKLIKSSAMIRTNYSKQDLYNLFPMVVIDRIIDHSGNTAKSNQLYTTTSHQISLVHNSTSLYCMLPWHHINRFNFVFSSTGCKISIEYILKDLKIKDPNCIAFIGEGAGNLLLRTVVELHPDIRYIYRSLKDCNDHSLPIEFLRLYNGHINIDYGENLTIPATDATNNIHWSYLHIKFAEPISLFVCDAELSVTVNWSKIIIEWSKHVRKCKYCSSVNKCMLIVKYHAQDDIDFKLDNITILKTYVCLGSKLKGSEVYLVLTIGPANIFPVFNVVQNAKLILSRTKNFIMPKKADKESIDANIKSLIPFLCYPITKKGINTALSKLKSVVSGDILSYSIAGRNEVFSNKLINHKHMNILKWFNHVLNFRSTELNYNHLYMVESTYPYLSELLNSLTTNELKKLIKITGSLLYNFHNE

SMILES: COc1cc(C(=O)NC[C@](O)(c2cc(C(C)(C)O)c(F)c(-c3ccc(F)cc3)n2)C(F)(F)F)cc2cc(C)nnc12 [JNJ-8003]
- IC50 [1]: > 100000 nM
- EC50 [2]: 88 nM
- MTase activity, RNA+compound+RSV L+P, CPM (RSV L+P complex; 50 uM): 23422 CPM and 23466 CPM and 23927 CPM
- MTase activity, RNA+compound+RSV L+P, CPM (RSV L+P complex; 200 uM): 14871 CPM and 15721 CPM and 15503 CPM
- impact on MTase activity (in words) (RSV L+P complex; full-length RSV L+P): no impact
